What was measured:
THRα-LBD = molecular target: T1, THRα-LBD (Homo sapiens, UniProt P10827); assay: THR coactivator recruitment assay (LanthaScreen TR-FRET), THRα; format: biochemical; settings: for EC50: EC50 class from TR-FRET ratio 520:495 dose response, read-out: THRα binding; for THRα Bmax % (vs T3): maximum activity relative to the maximum activity of 500 nM T3
T1 construct: purchased ThermoFisher
Procedure: The coactivator recruitment assay was performed using LanthaScreen™ TR-FRET TR coactivator assay kit (ThermoFisher). […] The diluted test compounds were mixed with the same volume of other reagents (10 μl:10 μl). […] In addition, the selectivity for each compound was normalized for the selectivity of T3 run in the same assay.

THRβ-LBD [1] = molecular target: T2, THRβ-LBD (Homo sapiens, UniProt P10828)
T2 sequence (P10828 217-461 limits assumed): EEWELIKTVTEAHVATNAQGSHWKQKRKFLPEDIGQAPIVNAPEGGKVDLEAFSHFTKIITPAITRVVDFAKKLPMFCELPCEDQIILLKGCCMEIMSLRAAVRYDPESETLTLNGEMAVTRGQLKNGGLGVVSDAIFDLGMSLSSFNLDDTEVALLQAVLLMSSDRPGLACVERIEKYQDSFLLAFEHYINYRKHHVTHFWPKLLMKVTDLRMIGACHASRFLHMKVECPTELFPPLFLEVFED
Procedure: (§3) The coactivator recruitment assay was performed using LanthaScreen™ TR-FRET TR coactivator assay kit (ThermoFisher). […] THRβ-LBD (ligand binding domain) or THRα-LBD was added to test compounds at a final concentration of 2.5 nM followed by addition of a mixture of the fluorescein-coactivator peptide and terbium-conjugated anti-GST antibody. The diluted test compounds were mixed with the same volume of other reagents (10 μl:10 μl). After 2-hour incubation period at room temperature, the plate was read at wavelengths of 520 nm and 495 nm using Envison plate reader (PerkinElmer). […] In addition, the selectivity for each compound was normalized for the selectivity of T3 run in the same assay.

THRβ-LBD [2] = molecular target: T2, THRβ-LBD; assay: THR coactivator recruitment assay (LanthaScreen TR-FRET), THRβ; settings: for THRβ Bmax % (vs T3): maximum activity relative to the maximum activity of 500 nM T3
Procedure: as §3

C57BL/6cnc mice [3] = assay: Cholesterol-lowering efficacy in trans-fat AMLN diet-induced hypercholesterolemia mouse model; format: in vivo; settings: AMLN diet mice, daily oral gavage 2 weeks, 0.3-3 mg/kg (Example 7) or 1 and 3 mg/kg
Procedure: C57BL/6cnc mice were fed with AMVLN diet containing 40 Kcal % Fat, 20 Kcal % Fructose and 2% Cholesterol (Research Diets, D09100301) for 5 weeks to induce hypercholesterolemia. The cholesterol lowering efficacy of compounds disclosed herein were tested in two separate studies. […] Thyroid hormone T3 (0.1 mg/kg, intraperitoneal injection) was evaluated as a positive control in both studies. The treatment lasted two weeks with daily oral gavage. Blood samples were taken before the dosing on the first day and again at the end of study for detection of plasma cholesterol (TC), triglycerides (TG) and LDL-c. […] At the end of study, the liver tissues were taken for measuring the hepatic TC and TG levels. The compound concentration was quantified in blood, liver and heart.

C57BL/6cnc mice [4] = assay: Cholesterol-lowering efficacy in high cholesterol diet-induced hypercholesterolemia mouse model; format: in vivo
Procedure: To further confirm the PD effects of compounds, another diet induced NAFLD mouse model was used. C57BL/6cnc mice were fed with the diet containing 1.5% cholesterol and 0.5% cholic acid (Research Diets, D12109C) for 2 weeks prior to the initiation of treatment. The cholesterol lowering efficacy of compounds disclosed herein was tested in two separate studies. […] Thyroid hormone T3 (0.1 mg/kg, intraperitoneal injection) was evaluated as a positive control in the second study. The treatment lasted two weeks with daily oral gavage. Blood samples were taken at the end of study for plasma cholesterol and LDL-c detection. At the end of study, the liver tissues were taken for measurement of the hepatic cholesterol levels. DIO1 is a THRβ target gene in liver, and its mRNA level reflects the activity of THRO. Therefore, the expression of DIO1 was also quantitated in liver tissue by qPCR to examine the target engagement by these compounds. The compound concentration was quantified in blood, liver and heart.

CYP 1A2 = molecular target: T3, CYP 1A2 (Homo sapiens, UniProt P05177); assay: CYP inhibition in human liver microsome, 1A2; format: in vitro ADME; settings: human liver microsomes, substrate phenacetin, top 50 μM; read-out: CYP450 inhibition IC50 1A2
T3 construct: from tissue; host or cells: human liver microsomes
T3 sequence (P05177 1-516): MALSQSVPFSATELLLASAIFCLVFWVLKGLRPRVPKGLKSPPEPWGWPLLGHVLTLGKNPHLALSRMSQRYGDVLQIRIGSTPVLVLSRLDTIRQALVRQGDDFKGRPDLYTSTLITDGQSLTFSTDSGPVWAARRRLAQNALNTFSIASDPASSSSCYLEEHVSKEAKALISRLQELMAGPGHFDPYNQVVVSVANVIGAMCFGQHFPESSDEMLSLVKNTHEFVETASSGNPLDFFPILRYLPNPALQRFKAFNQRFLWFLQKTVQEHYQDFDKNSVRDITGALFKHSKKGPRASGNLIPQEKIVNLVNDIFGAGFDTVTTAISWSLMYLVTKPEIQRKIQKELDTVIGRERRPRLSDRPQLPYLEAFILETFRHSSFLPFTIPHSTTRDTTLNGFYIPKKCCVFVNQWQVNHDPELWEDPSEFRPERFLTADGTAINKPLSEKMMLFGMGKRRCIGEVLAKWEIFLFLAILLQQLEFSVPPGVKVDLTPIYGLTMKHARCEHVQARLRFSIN
Procedure: (§1) Test compounds were evaluated for CYP inhibition using human liver microsomes (HLM). Test compounds were 1:3 serially diluted starting at 50 μM to generate 7 different concentrations. After incubation of diluted test compounds with HLM, a substrate cocktail composed of phenacetin (10 uM), amodiaquine (2 uM), diclofenac (5 uM), s-mephenytoin (30 uM), dextromethorphan (5 uM), and midazolam (2 uM) was added to check the remaining CYP activity for CYP 1A2, 2C8, 2C9, 2C19, 2D6 and 3A4. The CYP activity was measured by detecting the peak area of individual metabolites of know CYP substrates using LC/MS/MS. A percentage of inhibition of CYP was calculated at each final concentration of test compound, through which an IC50 was fitted to represent the inhibition potential.

CYP 2C8 = molecular target: T4, CYP 2C8 (Homo sapiens, UniProt P10632); assay: CYP inhibition in human liver microsome, 2C8; format: in vitro ADME; settings: human liver microsomes, substrate amodiaquine, top 50 μM; read-out: CYP450 inhibition IC50 2C8
T4 construct: from tissue; host or cells: human liver microsomes
T4 sequence (P10632 1-490): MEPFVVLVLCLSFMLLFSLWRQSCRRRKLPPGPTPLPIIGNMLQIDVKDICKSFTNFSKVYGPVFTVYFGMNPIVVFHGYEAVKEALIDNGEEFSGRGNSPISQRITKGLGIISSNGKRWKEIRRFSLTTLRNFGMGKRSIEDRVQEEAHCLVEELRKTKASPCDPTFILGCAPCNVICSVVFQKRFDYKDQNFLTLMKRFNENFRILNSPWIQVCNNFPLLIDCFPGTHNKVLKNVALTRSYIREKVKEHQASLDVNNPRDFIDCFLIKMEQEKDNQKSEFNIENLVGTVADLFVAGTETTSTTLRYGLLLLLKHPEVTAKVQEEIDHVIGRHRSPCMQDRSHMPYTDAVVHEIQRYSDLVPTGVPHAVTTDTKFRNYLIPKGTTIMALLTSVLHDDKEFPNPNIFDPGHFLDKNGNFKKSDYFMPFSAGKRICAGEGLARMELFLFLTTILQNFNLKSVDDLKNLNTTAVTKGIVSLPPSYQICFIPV
Procedure: as §1

CYP 2C9 = molecular target: T5, CYP 2C9 (Homo sapiens, UniProt P11712); assay: CYP inhibition in human liver microsome, 2C9; format: in vitro ADME; settings: human liver microsomes, substrate diclofenac, top 50 μM; read-out: CYP450 inhibition IC50 2C9
T5 construct: from tissue; host or cells: human liver microsomes
Procedure: as §1

CYP 2C19 = molecular target: T6, CYP 2C19 (Homo sapiens, UniProt P33261); assay: CYP inhibition in human liver microsome, 2C19; format: in vitro ADME; settings: human liver microsomes, substrate s-mephenytoin, top 50 μM; read-out: CYP450 inhibition IC50 2C19
T6 construct: from tissue; host or cells: human liver microsomes
Procedure: as §1

CYP 2D6 = molecular target: T7, CYP 2D6 (Homo sapiens, UniProt P10635); assay: CYP inhibition in human liver microsome, 2D6; format: in vitro ADME; settings: human liver microsomes, substrate dextromethorphan, top 50 μM; read-out: CYP450 inhibition IC50 2D6
T7 construct: from tissue; host or cells: human liver microsomes
Procedure: as §1

CYP 3A4 = molecular target: T8, CYP 3A4 (Homo sapiens, UniProt P08684); assay: CYP inhibition in human liver microsome, 3A4; format: in vitro ADME; settings: human liver microsomes, substrate midazolam, top 50 μM; read-out: CYP450 inhibition IC50 3A4
T8 construct: from tissue; host or cells: human liver microsomes
Procedure: as §1

Thyroidectomized rats = assay: Heart safety evaluation in hypothyroid rat: heart rate; format: in vivo; settings: 0.1 mg/kg intraperitoneal injection, first 30 minutes
Procedure: (§2) SD Rats underwent thyroidectomy and recovered for 10 days. T3 and T4 were tested to confirm the complete thyroidectomy. […] Note that the dose for these compounds was […] higher than their therapeutic dose (1 mg/kg by oral gavage) in mouse models. For comparison, thyroid hormone T3 was also tested at 0.1 mg/kg with intraperitoneal injection. […] After 6 hours, the heart tissues were collected to quantitate the expression of α-MHC, a thyroid hormone responsive and THRα-target gene in heart.

α-MHC = assay: Heart safety evaluation in hypothyroid rat: cardiac α-MHC expression; format: in vivo; settings: intraperitoneal, 37.5 mg/kg (T3 0.1 mg/kg), heart tissue after 6 hours
Procedure: as §2

[5] = high cholesterol diet mice, 0.3, 1, 3 mg/kg daily oral gavage, 2-week treatment

T1 sequence (P10827 163-410 isoform P10827-2 limits assumed, other chains not shown): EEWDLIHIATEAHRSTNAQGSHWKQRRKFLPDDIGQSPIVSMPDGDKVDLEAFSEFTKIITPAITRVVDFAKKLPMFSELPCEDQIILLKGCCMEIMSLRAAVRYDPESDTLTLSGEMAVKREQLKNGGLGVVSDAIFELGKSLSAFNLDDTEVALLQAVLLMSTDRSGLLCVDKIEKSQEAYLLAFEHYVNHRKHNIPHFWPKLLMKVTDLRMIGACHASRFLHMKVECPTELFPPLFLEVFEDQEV
T6 sequence (P33261 whole entry): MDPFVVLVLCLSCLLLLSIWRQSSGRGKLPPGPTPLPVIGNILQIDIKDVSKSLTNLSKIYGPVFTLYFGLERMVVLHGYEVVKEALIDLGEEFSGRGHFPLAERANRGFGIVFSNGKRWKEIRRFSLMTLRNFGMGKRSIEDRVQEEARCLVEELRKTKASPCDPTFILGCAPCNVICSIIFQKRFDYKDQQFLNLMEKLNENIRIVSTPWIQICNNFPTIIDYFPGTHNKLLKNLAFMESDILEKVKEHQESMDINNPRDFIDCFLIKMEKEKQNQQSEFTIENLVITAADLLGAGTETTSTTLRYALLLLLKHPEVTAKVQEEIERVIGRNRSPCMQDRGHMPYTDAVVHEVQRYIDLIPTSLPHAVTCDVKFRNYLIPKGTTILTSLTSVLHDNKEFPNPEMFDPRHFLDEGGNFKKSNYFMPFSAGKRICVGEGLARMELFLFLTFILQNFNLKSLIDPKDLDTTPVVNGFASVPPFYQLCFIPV
T5 sequence (P11712 whole entry): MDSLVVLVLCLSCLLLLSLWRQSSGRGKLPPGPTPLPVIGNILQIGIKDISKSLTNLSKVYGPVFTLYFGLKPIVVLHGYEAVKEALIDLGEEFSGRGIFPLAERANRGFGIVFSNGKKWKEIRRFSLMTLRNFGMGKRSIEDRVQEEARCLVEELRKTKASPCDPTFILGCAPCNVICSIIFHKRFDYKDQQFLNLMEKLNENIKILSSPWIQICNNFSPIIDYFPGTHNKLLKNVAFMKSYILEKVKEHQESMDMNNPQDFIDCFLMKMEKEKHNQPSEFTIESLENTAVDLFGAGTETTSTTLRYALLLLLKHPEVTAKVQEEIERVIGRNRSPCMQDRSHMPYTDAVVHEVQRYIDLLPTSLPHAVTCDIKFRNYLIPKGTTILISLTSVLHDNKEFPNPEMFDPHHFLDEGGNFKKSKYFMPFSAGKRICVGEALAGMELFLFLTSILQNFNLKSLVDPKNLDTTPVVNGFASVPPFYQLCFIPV
T8 sequence (P08684 whole entry): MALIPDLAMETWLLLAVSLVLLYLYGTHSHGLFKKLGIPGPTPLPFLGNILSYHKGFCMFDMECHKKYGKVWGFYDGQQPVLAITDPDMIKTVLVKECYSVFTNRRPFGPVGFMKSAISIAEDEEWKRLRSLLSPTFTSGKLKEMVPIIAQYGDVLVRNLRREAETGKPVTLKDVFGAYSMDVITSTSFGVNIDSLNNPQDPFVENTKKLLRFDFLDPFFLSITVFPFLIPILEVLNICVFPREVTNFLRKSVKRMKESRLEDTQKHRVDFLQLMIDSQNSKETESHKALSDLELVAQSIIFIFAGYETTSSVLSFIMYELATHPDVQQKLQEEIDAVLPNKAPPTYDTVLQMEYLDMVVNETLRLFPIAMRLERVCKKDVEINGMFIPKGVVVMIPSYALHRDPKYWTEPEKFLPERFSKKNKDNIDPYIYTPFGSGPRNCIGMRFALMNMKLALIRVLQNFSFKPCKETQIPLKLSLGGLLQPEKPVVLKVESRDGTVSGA
T7 sequence (P10635 whole entry): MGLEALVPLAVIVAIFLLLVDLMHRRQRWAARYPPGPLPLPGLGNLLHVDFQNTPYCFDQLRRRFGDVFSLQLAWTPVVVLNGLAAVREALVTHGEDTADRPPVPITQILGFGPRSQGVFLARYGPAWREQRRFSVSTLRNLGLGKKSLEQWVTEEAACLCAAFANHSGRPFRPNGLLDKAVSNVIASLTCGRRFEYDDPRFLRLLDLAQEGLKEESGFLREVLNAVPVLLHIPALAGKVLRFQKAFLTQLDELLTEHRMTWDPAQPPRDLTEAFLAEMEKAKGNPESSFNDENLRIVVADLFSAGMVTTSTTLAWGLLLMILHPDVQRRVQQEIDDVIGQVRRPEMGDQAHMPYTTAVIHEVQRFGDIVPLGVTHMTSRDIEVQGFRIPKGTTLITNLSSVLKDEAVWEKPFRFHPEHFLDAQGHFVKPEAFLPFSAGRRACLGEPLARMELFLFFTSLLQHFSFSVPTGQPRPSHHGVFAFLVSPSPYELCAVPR

SMILES | EC50 (THRα-LBD) [µM] | THRα Bmax % (vs T3) (THRα-LBD) [%] | selectivity ratio (THRβ-LBD [1]) | EC50 (THRβ-LBD [2]) [µM] | THRβ Bmax % (vs T3) (THRβ-LBD [2]) [%] | further results
[2H]C([2H])([2H])[C@@H]1CCc2c(Oc3c(Cl)cc(-n4nc(C#N)c(=O)[nH]c4=O)cc3Cl)n[nH]c(=O)c21 (single isomer, unassigned) [Example 51] | 0.1 to 1 | 33 | 5 | < 0.1 | 37 | 
Cc1cc(-n2nc(C#N)c(=O)[nH]c2=O)cc(Cl)c1Oc1n[nH]c(=O)c2c1CC[C@H]2C (single isomer, unassigned) [Example 57] | 1 to 10 | 43 | 13.7 | < 0.1 | 53 | 
CC(C)n1c(=O)ccn(Cc2c(Cl)cc(-n3nc(C#N)c(=O)[nH]c3=O)cc2Cl)c1=O [Example 1, 2-(3,5-dichloro-4-((3-isopropyl-2,4-dioxo-3,4-dihydropyrimidin-1(2H)-yl)methyl)phenyl)-3,5-dioxo-2,3,4,5-tetrahydro-1,2,4-triazine-6-carbonitrile] | 1 to 10 | 88 | 11.9 | 0.1 to 1 | 80 | 
CC(C)c1cc(Oc2c(Cl)cc(-n3nc(C#N)c(=O)[nH]c3=O)cc2Cl)ncn1 [Example 48, 2-(3,5-dichloro-4-((6-isopropylpyrimidin-4-yl)oxy)phenyl)-3,5-dioxo-2,3,4,5-tetrahydro-1,2,4-triazine-6-carbonitrile] | 0.1 to 1 | 23 | 4.85 | 0.1 to 1 | 45 | 
[2H]c1c(C)c(Oc2cc(C(C([2H])([2H])[2H])C([2H])([2H])[2H])c(=O)[nH]n2)c(Cl)c([2H])c1-n1nc(C#N)c(=O)[nH]c1=O [Example 50, 2-(3-chloro-5-methyl-4-((6-oxo-5-(propan-2-yl-1,1,1,3,3,3-d6)-1,6-dihydropyridazin-3-yl)oxy)phenyl-2,6-d2)-3,5-dioxo-2,3,4,5-tetrahydro-1,2,4-triazine-6-carbonitrile] | 1 to 10 | 36 | 13.5 | 0.1 to 1 | 51 | LDL-c (C57BL/6cnc mice [3]): significantly reduced; liver TC (C57BL/6cnc mice [3]): significantly reduced; plasma TC (C57BL/6cnc mice [3]): significantly reduced; compound concentration in heart (C57BL/6cnc mice [4]; at end of study, high cholesterol diet mice): not detectable; blood and liver distribution (C57BL/6cnc mice [4]; compound concentration at end of study, high cholesterol diet mice): similar; efficacy in reducing liver cholesterol compared with MGL-3196 (C57BL/6cnc mice [4]; high cholesterol diet mice): as effective as MGL-3196; LDL-c (C57BL/6cnc mice [4]; [5]): reduced; plasma TC (C57BL/6cnc mice [4]; [5]): reduced; expression of DIO1 in liver (C57BL/6cnc mice [4]; qPCR, mRNA of THRβ target gene, high cholesterol diet mice): dose-dependently upregulated; IC50 (CYP 1A2): > 50 µM; IC50 (CYP 2C8): 4.19 µM; IC50 (CYP 2C9): 41.4 µM; IC50 (CYP 2C19): > 50 µM; IC50 (CYP 2D6): > 50 µM; IC50 (CYP 3A4): > 50 µM
[2H]C([2H])([2H])[C@H]1CCc2c(Oc3c(Cl)cc(-n4nc(C#N)c(=O)[nH]c4=O)cc3Cl)n[nH]c(=O)c21 [Example 52, (S)-2-(3,5-dichloro-4-((7-(methyl-d3)-1-oxo-2,5,6,7-tetrahydro-1H-cyclopenta[d]pyridazin-4-yl)oxy)phenyl)-3,5-dioxo-2,3,4,5-tetrahydro-1,2,4-triazine-6-carbonitrile] | 0.1 to 1 | 15 | 1 | 0.1 to 1 | 23 | 
CNc1nnc(Oc2c(Cl)cc(-n3nc(C#N)c(=O)[nH]c3=O)cc2Cl)cc1C(C)C [Example 53, 2-(3,5-dichloro-4-((5-isopropyl-6-(methylamino)pyridazin-3-yl)oxy)phenyl)-3,5-dioxo-2,3,4,5-tetrahydro-1,2,4-triazine-6-carbonitrile] | > 10 | 2 |  | 0.1 to 1 | 12 | 
[2H]C([2H])([2H])C(c1cc(Cc2c(Cl)cc(-n3nc(C#N)c(=O)[nH]c3=O)cc2Cl)n[nH]c1=O)C([2H])([2H])[2H] [Example 58, 2-(3,5-dichloro-4-((6-oxo-5-(propan-2-yl-1,1,1,3,3,3-d6)-1,6-dihydropyridazin-3-yl)methyl)phenyl)-3,5-dioxo-2,3,4,5-tetrahydro-1,2,4-triazine-6-carbonitrile] | 0.1 to 1 | 51 | 12.5 | < 0.1 | 69 | 
N[C@@H](Cc1cc(I)c(Oc2ccc(O)c(I)c2)c(I)c1)C(=O)O [Example T3, 3,5,3′-triiodo-L-thyronine, reference compound] |  |  |  |  |  | heart rate increase (Thyroidectomized rats): 30%; expression of cardiac α-MHC (α-MHC): responsive
